From BindingDB's records for patent US20230399319 (Japan Tobacco, 2023)

The compounds below were run against NACHT, LRR and PYD domains-containing protein 3 (Homo sapiens, UniProt Q96P20) (assay: Evaluation of NLRP3 Inflammasome Inhibitory Activity Assay).
Sequence of NACHT, LRR and PYD domains-containing protein 3 (Q96P20 whole entry, the tested form may be a part): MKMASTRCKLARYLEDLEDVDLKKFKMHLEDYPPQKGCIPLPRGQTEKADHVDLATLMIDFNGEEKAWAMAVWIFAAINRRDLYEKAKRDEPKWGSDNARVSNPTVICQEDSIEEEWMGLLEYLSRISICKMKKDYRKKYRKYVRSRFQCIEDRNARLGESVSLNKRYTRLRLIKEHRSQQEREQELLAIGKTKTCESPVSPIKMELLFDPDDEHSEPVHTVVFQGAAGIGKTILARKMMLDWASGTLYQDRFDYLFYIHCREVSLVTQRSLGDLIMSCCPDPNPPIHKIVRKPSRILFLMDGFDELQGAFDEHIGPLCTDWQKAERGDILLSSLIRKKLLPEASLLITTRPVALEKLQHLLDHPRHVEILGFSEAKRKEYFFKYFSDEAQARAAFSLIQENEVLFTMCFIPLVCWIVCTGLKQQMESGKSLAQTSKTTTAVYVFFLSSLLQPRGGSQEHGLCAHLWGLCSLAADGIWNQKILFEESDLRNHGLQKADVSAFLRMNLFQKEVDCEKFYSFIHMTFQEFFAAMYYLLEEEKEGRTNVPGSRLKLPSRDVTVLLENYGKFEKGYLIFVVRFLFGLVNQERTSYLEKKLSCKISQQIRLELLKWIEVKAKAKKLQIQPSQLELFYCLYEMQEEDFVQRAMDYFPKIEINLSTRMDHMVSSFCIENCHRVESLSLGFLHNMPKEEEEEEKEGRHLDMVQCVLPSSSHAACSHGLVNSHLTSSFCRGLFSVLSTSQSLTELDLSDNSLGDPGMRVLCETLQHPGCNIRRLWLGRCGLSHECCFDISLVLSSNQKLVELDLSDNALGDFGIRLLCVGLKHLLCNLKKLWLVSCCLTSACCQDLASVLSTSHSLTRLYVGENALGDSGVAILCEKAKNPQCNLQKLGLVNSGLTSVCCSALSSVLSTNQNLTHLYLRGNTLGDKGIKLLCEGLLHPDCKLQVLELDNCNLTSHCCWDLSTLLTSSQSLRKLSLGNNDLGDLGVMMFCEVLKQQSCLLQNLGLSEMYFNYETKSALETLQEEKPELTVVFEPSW
Procedure: The NLRP3 inflammasome inhibitory activity of test compounds were evaluated CM the basis of the inhibitory activity of the IL-1β, production in THP1-Null cells (Product Number: thp-null, InvivoGen). […] A solution containing a test compound (20 μL/well) was added to test compound-setting wells. […] The supernatant of the culture was cryonically stored (set at −20° C.) until measurement of IL-1β.
Work on `Cc1cc(Nc2nc(C(=O)NS(=O)(=O)N3CCOC(C(C)(C)O)CC3)co2)c(C)cc1F` (stereo not drawn) [US20230399319, Example 3-002] yielded an IC50 of 49 nM. For `CCOC[C@H]1OCCN(S(=O)(=O)NC(=O)c2coc(Nc3cc(C)c(F)cc3C)n2)C[C@@H]1OC` [US20230399319, Example 3-006], the IC50 was 30 nM. In the case of `CCOC[C@@H]1OCCN(S(=O)(=O)NC(=O)c2coc(Nc3cc(C)c(F)cc3C)n2)C[C@H]1OC` [US20230399319, Example 3-007], the IC50 is reported as 820 nM.
